For data set [1] the following is noted: cited from earlier work.
Data set [2] in a line: Amount of paracetamol at various points in time and different pH. Type of data set: physicochemical. The settings on record: pH range 6.3-7.3, various points in time. The text has this: The amount of paracetamol was studied at varies points in time and for different pH's.
Data set [3] in a line: Dissolution of sodium ibuprofen 2H2O alone in water at gradually decreased pH (precipitation observed). The settings on record: for Dissolved: 3.85 mg/ml alone in water; for Dissolution: in water after 1 month storage at 25° C. Type of data set: physicochemical. As to the method: Precipitation of ibuprofen is observed once pH is at 5.75. The Ibuprofen solutions were stored for 1 month at 25° C. They were again observed for signs of precipitation.

A short description of data set [4]: Dissolution of sodium ibuprofen 2H2O in the formulation Paracetamol - Ibuprofen at varying pH. The class given is physicochemical. As to the method:
In a further experiment the dissolution of sodium ibuprofen 2H2O was studied in combination with paracetamol at a concentration of 10 mg paracetamol per liter.

Test in data set [5]: as above
The class given is physicochemical. The settings on record: in the formulation 3 mg/ml Paracetamol 10 mg/ml Ibuprofen.

We go through 3 compounds from patent US11213498B2, “Aqueous formulation comprising paracetamol and ibuprofen” (Hyloris Pharmaceuticals SA, priority 2014, dated 2022).

Each structure is given as a SMILES string. Where two headings read alike, the source gives them in different places.

For `CC(C)Cc1ccc(C(C)C(=O)O)cc1` (stereo not drawn) [Ibuprofen, 2-(p-isobutylphenyl)propionic acid], the Precipitation of ibuprofen entry in data set [1] (at pH 5.5 to 6.0) is on record as “precipitates”. In addition, the Solubility in water entry in data set [1] is “very poorly soluble”.
Take `CC(=O)Nc1ccc(O)cc1` [paracetamol, N-(4-hydroxyphenyl)acetamide]: in data set [1] (aqueous solution (Koshy et al., 1961)), the “pH at which rate of degradation of paracetamol is minimal” value is approximately 6. Besides, the Degradation of paracetamol entry in data set [1] (at pH 7) was “significant”; in data set [2], “minimal degradation”.
For the compound `CC(C)Cc1ccc(C(C)C(=O)O)cc1` (stereo not drawn) [sodium ibuprofen 2H2O], the Dissolved result in data set [3] (pH 3) is given as “No”; in data set [3] (pH 4), “No”; in data set [3] (pH 5), “No”; in data set [3] (pH 5.5), “No”; in data set [3] (pH 5.8), “Yes”; in data set [3] (pH 6) it was “Yes”. The Dissolved result in data set [3] (pH 6.2), in data set [3] (pH 6.4), in data set [3] (pH 6.6), in data set [3] (pH 6.8), in data set [3] (pH 7) and in data set [3] (pH 7.5) was “Yes” throughout. Further, the Dissolved result in data set [5] (pH 6.2), in data set [5] (pH 6.3), in data set [5] (pH 6.4), in data set [5] (pH 6.6) and in data set [5] (pH 7) was “Yes” in each case. Moreover, the “pH at which precipitation of ibuprofen is observed” value in data set [3] (3.85 mg/ml in water, pH gradually decreased from 8.80) is 5.75. In addition, the Dissolution result in data set [3] (pH 5.8) was “No”; in data set [3] (pH 6), “No”; in data set [3] (pH 6.2), “Yes”; in data set [3] (pH 6.4), “Yes”; in data set [3] (pH 6.6), “Yes”; in data set [3] (pH 6.8), “Yes”. The Dissolution result is “Yes” in data set [3] (pH 7); “Yes” in data set [3] (pH 7.5); “No” in data set [4] (1 month storage at 25° C., pH 6.2); “Yes” in data set [4] (1 month storage at 25° C., pH 6.3); “Yes” in data set [4] (1 month storage at 25° C., pH 6.4); “Yes” in data set [4] (1 month storage at 25° C., pH 6.6). For the same compound, the Dissolution entry was “Yes” in data set [4] (1 month storage at 25° C., pH 7); “Yes” in data set [4] (6 months, 25° C., pH 6.3); “Yes” in data set [4] (6 months, 25° C., pH 6.4); “Yes” in data set [4] (6 months, 25° C., pH 6.6); “Yes” in data set [4] (6 months, 25° C., pH 7). Moreover, the Precipitation result in data set [3] (solution at pH 6, stored for 1 month at 25° C.) is reported as “showed precipitation”; in data set [3] (solution at pH 6.2, stored for 1 month at 25° C.) it was “precipitation was absent”.
